Data: patent US5026848A, “Novel generation of heteroaryloxyalkyl heterocycles with antipicornaviruses activities” (Synphar Laboratories Incorporated, priority 1988, dated 1991)
Values after ≈ are worked out from the molar mass of the structure shown. Where two headings read alike, the source gives them in different places.

What was measured:
Rhinovirus 17 = test: Anti-rhinovirus activity, cytopathic effect inhibition / neutral red dye uptake, type 17; format: cell-based; settings: Enterovirus, WI-38; Table II; read-out: MIC 50 Rhinovirus Type 17
Rhinovirus 1A = test: Anti-rhinovirus activity, cytopathic effect inhibition / neutral red dye uptake, type 1A; format: cell-based; settings: Enterovirus, WI-38; Table I; WI38 cells, 33° C., 3-4 days; NA = Not active; read-out: MIC50 Rhinovirus 1A
WI38 cells = test: Toxicity to WI38 cells (change in morphology in / growth inhibition of 25% of the cells); format: cell-based
Rhinovirus 53 = test: Anti-rhinovirus activity, cytopathic effect inhibition / neutral red dye uptake, type 53; format: cell-based; settings: Enterovirus, WI-38; Table II; read-out: MIC 50 Rhinovirus Type 53
Rhinovirus 49 = test: Anti-rhinovirus activity, cytopathic effect inhibition / neutral red dye uptake, type 49; format: cell-based; settings: Enterovirus, WI-38; Table II; read-out: MIC 50 Rhinovirus Type 49
Rhinovirus 31 = test: Anti-rhinovirus activity, cytopathic effect inhibition / neutral red dye uptake, type 31; format: cell-based; settings: Enterovirus, WI-38; Table II; one of seven commonest serotypes; read-out: MIC 50 Rhinovirus Type 31
Rhinovirus 15 = test: Anti-rhinovirus activity, cytopathic effect inhibition / neutral red dye uptake, type 15; format: cell-based; settings: Enterovirus, WI-38; Table II; one of seven commonest serotypes; read-out: MIC 50 Rhinovirus Type 15
Rhinovirus 4 = test: Anti-rhinovirus activity, cytopathic effect inhibition / neutral red dye uptake, type 4; format: cell-based; settings: Enterovirus, WI-38; Table II; one of seven commonest serotypes; read-out: MIC 50 Rhinovirus Type 4
Rhinovirus 56 = test: Anti-rhinovirus activity, cytopathic effect inhibition / neutral red dye uptake, type 56; format: cell-based; settings: Enterovirus, WI-38; Table II; read-out: MIC 50 Rhinovirus Type 56
HRV-1A and HRV-39 = test: Anti-rhinovirus activity against HRV-1A and HRV-39; settings: in words
Rhinovirus 88 = test: Anti-rhinovirus activity, cytopathic effect inhibition / neutral red dye uptake, type 88; format: cell-based; settings: Enterovirus, WI-38; Table II; read-out: MIC 50 Rhinovirus Type 88
Rhinovirus 23 = test: Anti-rhinovirus activity, cytopathic effect inhibition / neutral red dye uptake, type 23; format: cell-based; settings: Enterovirus, WI-38; Table II; read-out: MIC 50 Rhinovirus Type 23
Rhinovirus 44 = test: Anti-rhinovirus activity, cytopathic effect inhibition / neutral red dye uptake, type 44; format: cell-based; settings: Enterovirus, WI-38; Table II; read-out: MIC 50 Rhinovirus Type 44
Enterovirus serotypes = format: cell-based; settings: for All Enterovirus Serotypes (number of serotypes active / tested): Table III, numerator, denominator 7, but 5 for compound 8
Rhinovirus 2 = test: Anti-rhinovirus activity, cytopathic effect inhibition / neutral red dye uptake, type 2; format: cell-based; settings: Enterovirus, WI-38; Table II; one of seven commonest serotypes; read-out: MIC 50 Rhinovirus Type 2
Coxsacki-B4 = test: Activity against other picornaviruses, Coxsacki-B4; format: cell-based; settings: Enterovirus, read-out: MIC 50 Cox. B4
Echo-7 = test: Activity against other picornaviruses, Echo-7; format: cell-based; settings: Enterovirus, read-out: MIC 50 Echo 7
Rhinovirus 1B = test: Anti-rhinovirus activity, cytopathic effect inhibition / neutral red dye uptake, type 1B; format: cell-based; settings: Enterovirus, WI-38; Table II; one of seven commonest serotypes; read-out: MIC 50 Rhinovirus Type 1B
Coxsacki-B1 = test: Activity against other picornaviruses, Coxsacki-B1; format: cell-based; settings: Enterovirus, read-out: MIC 50 Cox. B1
Rhinovirus 30 = test: Anti-rhinovirus activity, cytopathic effect inhibition / neutral red dye uptake, type 30; format: cell-based; settings: Enterovirus, WI-38; Table II; read-out: MIC 50 Rhinovirus Type 30
Echo-11 = test: Activity against other picornaviruses, Echo-11; format: cell-based; settings: Enterovirus, read-out: MIC 50 Echo 11
Rhinovirus 36 = test: Anti-rhinovirus activity, cytopathic effect inhibition / neutral red dye uptake, type 36; format: cell-based; settings: Enterovirus, WI-38; Table II; read-out: MIC 50 Rhinovirus Type 36
Rhinovirus 63 = test: Anti-rhinovirus activity, cytopathic effect inhibition / neutral red dye uptake, type 63; format: cell-based; settings: Enterovirus, WI-38; Table II; read-out: MIC 50 Rhinovirus Type 63
Polio 1 = test: microbe, parasite or virus in culture; format: cell-based; settings: Enterovirus, read-out: MIC 50 Polio 1
Coxsacki-A21 = test: Activity against other picornaviruses, Coxsacki-A21; format: cell-based; settings: Enterovirus, read-out: MIC 50 Cox. A21
Rhinovirus 86 = test: Anti-rhinovirus activity, cytopathic effect inhibition / neutral red dye uptake, type 86; format: cell-based; settings: Enterovirus, WI-38; Table II; read-out: MIC 50 Rhinovirus Type 86
Rhinovirus 32 = test: Anti-rhinovirus activity, cytopathic effect inhibition / neutral red dye uptake, type 32; format: cell-based; settings: Enterovirus, WI-38; Table II; read-out: MIC 50 Rhinovirus Type 32
Rhinovirus 29 = test: Anti-rhinovirus activity, cytopathic effect inhibition / neutral red dye uptake, type 29; format: cell-based; settings: Enterovirus, WI-38; Table II; one of seven commonest serotypes; read-out: MIC 50 Rhinovirus Type 29
Rhinovirus 39 = test: Anti-rhinovirus activity, cytopathic effect inhibition / neutral red dye uptake, type 39; format: cell-based; settings: Enterovirus, WI-38
Coxsacki-A9 = test: Activity against other picornaviruses, Coxsacki-A9; format: cell-based; settings: Enterovirus, read-out: MIC 50 Cox. A9
[1] = tested on: 20 serotypes of rhinovirus; test: Anti-rhinovirus activity against a panel of 20 serotypes; settings: Table II; numerator; denominator 20, but 10 for compound 8 and 6 for compound 30
[2] = Table I, concentration with change in morphology in 25% of WI38 cells
[3] = Table I, WI38 cells, 33° C., 3-4 days, read-out: MIC50 Rhinovirus 39

SMILES | IC50 (Rhinovirus 17) [µg/mL] | EC50 (Rhinovirus 1A) [µg/mL] | Toxicity (WI38 cells; [2]) [µg/mL] | Toxicity (WI38 cells; Table II) [µg/mL] | Toxicity (WI38 cells; Table III) [µg/mL] | EC50 (Rhinovirus 53) [µg/mL] | EC50 (Rhinovirus 49) [µg/mL] | EC50 (Rhinovirus 31) [µg/mL] | IC50 (Rhinovirus 15) [µg/mL] | IC50 (Rhinovirus 4) [µg/mL] | EC50 (Rhinovirus 56) [µg/mL] | EC50 (Rhinovirus 88) [µg/mL] | IC50 (Rhinovirus 23) [µg/mL] | EC50 (Rhinovirus 44) [µg/mL] | inhibitory activity against the members of the Entero virus family (Enterovirus serotypes) | All Enterovirus Serotypes (number of serotypes active / tested) (Enterovirus serotypes) | IC50 (Rhinovirus 2) [µg/mL] | IC50 (Coxsacki-B4) [µg/mL] | IC50 (Echo-7) [µg/mL] | IC50 (Rhinovirus 1B) [µg/mL] | other results
Cc1cc(CCCCCCCOc2ccc3oc4ccccc4c3c2)on1 [Compound 5] | 10 (≈ 27.5 µM) | 5 (≈ 13.8 µM) | 100 | 100 | 100 | 10 (≈ 27.5 µM) | > 25 | 10 (≈ 27.5 µM) | 5 (≈ 13.8 µM) | < 0.5 | 5 (≈ 13.8 µM) | 0.5 (≈ 1.38 µM) | 5 (≈ 13.8 µM) | < 0.5 | remarkable inhibitory activity | 5 | > 25 | > 25 | 25 (≈ 68.8 µM) | 5 (≈ 13.8 µM) | inhibitory activity against HRV-1A and HRV-39 in vitro (HRV-1A and HRV-39): remarkably inhibitory activity; IC50 (Coxsacki-B1): 10 µg/mL (≈ 27.5 µM); IC50 (Rhinovirus 30): 0.5 µg/mL (≈ 1.38 µM); IC50 (Echo-11): > 25 µg/mL; EC50 (Rhinovirus 36): > 25 µg/mL; EC50 (Rhinovirus 63): 10 µg/mL (≈ 27.5 µM); EC50 (Polio 1): 10 µg/mL (≈ 27.5 µM); IC50 (Coxsacki-A21): 5 µg/mL (≈ 13.8 µM); EC50 (Rhinovirus 86): 0.5 µg/mL (≈ 1.38 µM); EC50 (Rhinovirus 32): 25 µg/mL (≈ 68.8 µM); IC50 (Rhinovirus 29): 5 µg/mL (≈ 13.8 µM); EC50 (Rhinovirus 39; [3]): 1 µg/mL (≈ 2.75 µM); EC50 (Coxsacki-A9): 5 µg/mL (≈ 13.8 µM); All Rhinovirus Serotypes (number of serotypes active / tested) [1]: 17
Cc1cc(CCCCCCCOc2cc(C)nc3ccccc23)on1 [Compound 9, 5-[7-(2-methylquinolin-4-yl)oxyheptyl]-3-methisoxazole] | > 25 | 5 (≈ 14.8 µM) | 50 | 50 | 50 | 5 (≈ 14.8 µM) | 10 (≈ 29.5 µM) | 1 (≈ 2.95 µM) | 5 (≈ 14.8 µM) | 10 (≈ 29.5 µM) | 5 (≈ 14.8 µM) | < 0.5 | 5 (≈ 14.8 µM) | 1 (≈ 2.95 µM) | remarkable inhibitory activity | 2 | 1 (≈ 2.95 µM) | 10 (≈ 29.5 µM) | > 25 | 10 (≈ 29.5 µM) | inhibitory activity against HRV-1A and HRV-39 in vitro (HRV-1A and HRV-39): remarkably inhibitory activity; IC50 (Coxsacki-B1): > 25 µg/mL; IC50 (Rhinovirus 30): 0.5 µg/mL (≈ 1.48 µM); IC50 (Echo-11): > 25 µg/mL; EC50 (Rhinovirus 36): 10 µg/mL (≈ 29.5 µM); EC50 (Rhinovirus 63): 5 µg/mL (≈ 14.8 µM); EC50 (Polio 1): > 25 µg/mL; IC50 (Coxsacki-A21): 10 µg/mL (≈ 29.5 µM); EC50 (Rhinovirus 86): 5 µg/mL (≈ 14.8 µM); EC50 (Rhinovirus 32): 10 µg/mL (≈ 29.5 µM); IC50 (Rhinovirus 29): 5 µg/mL (≈ 14.8 µM); EC50 (Rhinovirus 39; [3]): 1 µg/mL (≈ 2.95 µM); EC50 (Rhinovirus 39; Table II, read-out: MIC 50 Rhinovirus Type 39): 5 µg/mL (≈ 14.8 µM); EC50 (Coxsacki-A9): > 25 µg/mL; All Rhinovirus Serotypes (number of serotypes active / tested) [1]: 19
Cc1csc(CCCCCCCOc2ccc3oc4ccccc4c3c2)n1 [Compound 15] | 5 (≈ 13.2 µM) | 10 (≈ 26.3 µM) | 50 | 50 | 50 | > 25 | > 25 | 1 (≈ 2.63 µM) | 5 (≈ 13.2 µM) | 1 (≈ 2.63 µM) | 5 (≈ 13.2 µM) | < 0.5 | 10 (≈ 26.3 µM) | 1 (≈ 2.63 µM) | remarkable inhibitory activity | 6 | > 25 | 10 (≈ 26.3 µM) | 10 (≈ 26.3 µM) | 5 (≈ 13.2 µM) | IC50 (Coxsacki-B1): 25 µg/mL (≈ 65.9 µM); IC50 (Rhinovirus 30): 5 µg/mL (≈ 13.2 µM); IC50 (Echo-11): > 25 µg/mL; EC50 (Rhinovirus 36): > 25 µg/mL; EC50 (Rhinovirus 63): > 25 µg/mL; EC50 (Polio 1): 5 µg/mL (≈ 13.2 µM); IC50 (Coxsacki-A21): 5 µg/mL (≈ 13.2 µM); EC50 (Rhinovirus 86): < 0.5 µg/mL; EC50 (Rhinovirus 32): > 25 µg/mL; IC50 (Rhinovirus 29): 5 µg/mL (≈ 13.2 µM); EC50 (Rhinovirus 39; [3]): 5 µg/mL (≈ 13.2 µM); EC50 (Coxsacki-A9): 1 µg/mL (≈ 2.63 µM); All Rhinovirus Serotypes (number of serotypes active / tested) [1]: 14
